Reference: patent US6913768B2, “Sustained release delivery of amphetamine salts” (Shire Laboratories, Inc., priority 2002, dated 2005)

Test: Single-dose mean plasma concentration profile of […] XR 20 mg (FIG. 1)
Assay type: in vivo
Settings: human, oral, […] XR 20 mg single dose, mean over about 20 patients
Procedure: See, e.g., Fundamentals of Clinical Pharmacokinetics. J. G. Wagner, Drug Intelligence Publications, Inc., Hamilton, Ill., 1975; Guidance for Industry, Bioavailability and Bioequivalence Studies for Orally Administered Drug Products-General Considerations, FDA, CDER. October 2000.
Individual patients were treated with […] XR®, 20 mg. Subjects received either one single dose administered with food or one single dose administered following a 10-hour overnight fast through continued fast 3.5 hours post dosing. The mean plasma concentration profile of FIG. 1 was obtained from averaging such individuals' curves.

C[C@H](N)Cc1ccccc1 [d-amphetamine] gave a Cmax of 28 ng/mL, a Tmax of 7.1 h and an AUC (read-out: AUC (time zero to infinity)) of 557 ng·h/mL.
